{"source": "patent US20230063321A1", "about": "“Methods for Treating Inflammatory Bowel Diseases with alpha4beta7 Integrin Antagonists” (Protagonist Therapeutics, Inc., priority 2020, published 2023)", "key": {"[1]": {"assay": "Drug exposure in plasma and Peyer's patches after oral dosing", "procedure": "(§1) One hour following dosing, mice were euthanized and whole blood/plasma and Peyer's patches were collected. Peyer's patches were dispersed in 1 mL RPMI medium with 2% FBS without washing step. Whole blood and single cell suspension of Peyer's patches (100 uL out of 1 mL total) were submitted for flow cytometry to determine α4β7 receptor occupancy. % RO=(1−(% positive test sample/% positive median vehicle control))*100. Plasma and Peyer's patches dispersed in single cell suspension (500 uL of 1 mL total) were also analyzed for drug exposure."}, "α4β7": {"target": "T1, α4β7 (Mus musculus, UniProt P26011+Q00651)", "T1 construct": "mice were euthanized and whole blood/plasma and Peyer's patches were collected; from tissue; host or cells: whole blood and Peyer's patches of C57BL/6 mice", "T1 sequence (Q00651 41-1039)": "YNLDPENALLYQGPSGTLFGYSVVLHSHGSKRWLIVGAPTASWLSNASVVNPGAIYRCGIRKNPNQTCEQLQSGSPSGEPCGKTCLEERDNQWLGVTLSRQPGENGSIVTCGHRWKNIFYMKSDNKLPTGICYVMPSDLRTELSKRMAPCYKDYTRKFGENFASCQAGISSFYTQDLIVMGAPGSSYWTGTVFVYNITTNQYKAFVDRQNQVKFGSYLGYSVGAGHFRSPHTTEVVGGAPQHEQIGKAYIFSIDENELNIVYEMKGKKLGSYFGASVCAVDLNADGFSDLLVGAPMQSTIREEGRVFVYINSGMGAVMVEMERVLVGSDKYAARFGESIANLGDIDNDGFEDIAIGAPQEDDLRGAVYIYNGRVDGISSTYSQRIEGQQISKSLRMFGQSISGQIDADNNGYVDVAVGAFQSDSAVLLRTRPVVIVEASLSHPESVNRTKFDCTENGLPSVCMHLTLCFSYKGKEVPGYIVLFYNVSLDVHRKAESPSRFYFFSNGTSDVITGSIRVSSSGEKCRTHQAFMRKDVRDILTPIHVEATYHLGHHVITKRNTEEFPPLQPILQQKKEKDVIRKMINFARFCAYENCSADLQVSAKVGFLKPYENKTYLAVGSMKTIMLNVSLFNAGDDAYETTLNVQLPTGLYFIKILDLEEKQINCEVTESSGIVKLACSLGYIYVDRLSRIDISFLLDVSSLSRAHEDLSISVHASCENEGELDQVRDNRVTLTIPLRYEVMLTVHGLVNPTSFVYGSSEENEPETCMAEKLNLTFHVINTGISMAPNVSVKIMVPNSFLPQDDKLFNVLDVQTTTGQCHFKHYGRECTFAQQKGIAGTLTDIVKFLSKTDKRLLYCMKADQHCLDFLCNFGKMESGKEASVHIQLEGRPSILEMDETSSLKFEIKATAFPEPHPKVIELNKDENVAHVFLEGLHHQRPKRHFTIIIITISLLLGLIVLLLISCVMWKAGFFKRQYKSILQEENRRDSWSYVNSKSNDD", "T1 sequence (P26011 20-806)": "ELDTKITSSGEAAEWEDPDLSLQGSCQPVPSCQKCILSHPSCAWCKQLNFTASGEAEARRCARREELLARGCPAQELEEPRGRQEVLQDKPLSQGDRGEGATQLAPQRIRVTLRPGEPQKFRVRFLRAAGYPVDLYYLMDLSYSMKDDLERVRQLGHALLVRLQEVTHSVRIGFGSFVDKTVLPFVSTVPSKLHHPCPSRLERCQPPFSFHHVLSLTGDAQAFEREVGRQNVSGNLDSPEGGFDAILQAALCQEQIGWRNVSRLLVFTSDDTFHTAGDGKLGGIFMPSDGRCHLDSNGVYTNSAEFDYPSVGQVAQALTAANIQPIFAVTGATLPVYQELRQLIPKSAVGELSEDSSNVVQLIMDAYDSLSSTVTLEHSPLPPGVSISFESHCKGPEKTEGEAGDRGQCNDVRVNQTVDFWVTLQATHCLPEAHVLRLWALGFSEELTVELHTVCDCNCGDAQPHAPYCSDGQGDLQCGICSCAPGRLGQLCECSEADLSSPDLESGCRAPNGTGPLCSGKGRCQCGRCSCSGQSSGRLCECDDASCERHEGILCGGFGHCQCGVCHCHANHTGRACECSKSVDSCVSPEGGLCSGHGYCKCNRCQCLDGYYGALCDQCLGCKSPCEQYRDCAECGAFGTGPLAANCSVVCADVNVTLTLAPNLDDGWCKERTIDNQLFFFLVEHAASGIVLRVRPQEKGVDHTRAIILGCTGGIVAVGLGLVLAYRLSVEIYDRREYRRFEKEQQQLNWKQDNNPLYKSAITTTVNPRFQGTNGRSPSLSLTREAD", "assay": "α4β7 receptor occupancy in whole blood and Peyer's patches after oral dosing", "type": "in vivo, C57BL/6 mice", "procedure": "as §1"}, "[2]": {"assay": "Study 1 pharmacokinetics in healthy male volunteers (liquid solution)", "conditions": "for dose excreted at 24 h: 24-hour fecal recovery, intact, multiple dose; for Tmax: Tmax (h)", "procedure": "Dose escalation proceeded from 100 mg, 300 mg, 1000 mg, 1400 mg. Subjects in the 300 mg dose cohort received treatment in the fasted state on one occasion and following a high fat meal on a second occasion in a crossover fashion. The high fat meal consisted of two eggs fried in butter, two strips of bacon, two slices of toast with butter, four ounces of hash brown potatoes and 240 ml of whole milk. During Part 1, subjects refrained from food and drink except water for 10 hours before and for four hours after dosing with the exception of subjects in the 300 mg dose cohort during the fed treatment.\nPart 2 was a randomized, placebo-controlled, double-blind multiple ascending dose study in 50 male subjects divided equally into 5 cohorts. […] Doses evaluated in Part 2 included 100 mg, 300 mg and 1000 mg. During Part 2, two cohorts of subjects (100 mg and 300 mg) received food approximately 30 minutes prior to each dose and another two cohorts of subjects (300 mg and 100 mg) refrained from food for 10 hours before and for 1 hour after dosing.\nStudy 1: The single and multiple ascending dose phase of the study consisted of sequential dose escalations in 10 subject per dose cohort. […] Dose solutions were formulated in 50 mM phosphate buffer pH 7.4 and were prepared weekly by a qualified pharmacist.\nBlood samples for pharmacokinetics were collected predose and for 48 hours postdose following single doses. In the multiple ascending dose phase, blood samples were obtained on Days 1-3 and 14-16; on Days 8 samples were obtained predose, 4, and 12 hours. On Day 10 of the MAD, subjects were required to collect all urine for the 0-6, 6-12, 12-18, and 18-24 hour intervals postdose and on Day 11 subjects were required to collect fecal samples.\nThe drug and internal standard were extracted from the matrix by a protein precipitation procedure. The limit of quantitation was 0.2 ng/mL, 20 ng/mL, and 100 ng/mL in plasma, urine, and feces, respectively. […] Coefficient of determinations for the calibration curves were at least 0.99 for all matrices. The interassay accuracy (% bias) ranged from −2.2% to 1.0% for plasma, −3.8% to 9.0% for urine and −5.0 to 5.2% for feces. Interassay precision (% CV) ranged from 3.7% to 7.7% for plasma, 2.8% to 7.0% for urine, and 1.2% to 5.2% for feces.\nPharmacokinetic parameters were estimated by noncompartmental methods using Phoenix WinNonlin (Certara, Princeton N.J.). Peak plasma concentration (Cmax) and time to peak plasma concentration (Tmax) were observed values. The elimination rate was estimated from the slope of the least-squares regression on the terminal log-linear phase. Area under the plasma concentration-time curve from time zero to the last quantifiable concentration (AUCt) was estimated by a linear trapezoidal method and was extrapolated to infinity (AUC∞) by dividing the last quantifiable concentration b the elimination rate."}}, "note": "Several values for one entry are separate records, joined by “and”; a condition that tells them apart may be missing. Equal entries are not always repeated. Numbered stars: 1 amine (or outer) side, 2 acyl side, 3 side chain; on linkers, the order of the positions; unused ones are H or OH. Bridge positions count the residues as written; N and C are the ends. Square brackets hold non-standard residues; d marks the D form. Peptide text beside a SMILES is read from it. I, II: the chains in the order shown. ξ: configuration not given here. Phe(4-tBu) = CC(C)(C)c1ccc(C[C@H](N)C(=O)O)cc1; Diglycolyl = O=C(COCC(=O)[*:2])[*:1]; NMeR = CN[C@@H](CCCNC(=N)N)C(=O)O; β3hE = N[C@@H](CCC(=O)O)CC(=O)O; Thr(3ξ) = CC(O)[C@H](N)C(=O)O; X1 = O=C(c1ccccc1C[*:2])[*:1]; Pen = CC(C)(S)[C@H](N)C(=O)O", "data": [{"smiles": "CC(C)C[C@@H]1NC(=O)[C@H](C(C)O)NC(=O)[C@H](CC(=O)O)NC(=O)[C@H](CO)NC(=O)[C@H](CCCNC(=N)N)N(C)C(=O)c2ccccc2CSC(C)(C)[C@@H](C(=O)N[C@@H](Cc2ccc(C(C)(C)C)cc2)C(=O)N[C@@H](CCC(=O)O)CC(=O)N[C@H](CCCCNC(=O)COCC(=O)NCCCC[C@@H](NC(=O)C[C@H](CCC(=O)O)NC(=O)[C@H](Cc2ccc(C(C)(C)C)cc2)NC(=O)[C@H]2NC(=O)[C@H](CC(C)C)NC(=O)[C@H](C(C)O)NC(=O)[C@H](CC(=O)O)NC(=O)[C@H](CO)NC(=O)[C@H](CCCNC(=N)N)N(C)C(=O)c3ccccc3CSC2(C)C)C(=O)O)C(=O)O)NC1=O", "note": "(stereo partly drawn) [Compound A, ((2-Benzyl)-(N-Me-R)-Ser-Asp-Thr-Leu-Pen-(Phe(4-tBlu))-(β-homo-Glu)-(D-Lys)-OH)2 (SEQ ID NO: 5) and linker-DIG diglycolic acid] (I: [NMeR]SD[Thr(3ξ)]L[Pen][Phe(4-tBu)][β3hE][dK]-OH / II: [NMeR]SD[Thr(3ξ)]L[Pen][Phe(4-tBu)][β3hE][dK]-OH; linker I:9-II:9 via Diglycolyl; linker I:N-I:6, II:N-II:6 via X1)", "values": [{"measurement": "concentration in plasma and Peyer's Patches vs dose", "setting": "[1]; 3 and 30 mg/kg", "result": "significant dose-dependent increase"}, {"measurement": "concentration in Peyer's Patches compared to plasma", "setting": "[1]; both dose levels (3 and 30 mg/kg)", "result": "significantly higher"}, {"measurement": "receptor occupancy in whole blood and Peyer's patches, 30 mg/kg vs 3 mg/kg dose group", "setting": "α4β7; PO", "result": "significantly higher"}, {"measurement": "receptor occupancy in Peyer's patches compared to whole blood", "setting": "α4β7; both dose groups (3 and 30 mg/kg PO)", "result": "significantly higher"}, {"measurement": "receptor occupancy at 30 mg/kg", "setting": "α4β7; mouse, 30 mg/kg dose", "result": 100, "unit": "%"}, {"measurement": "accumulation with once daily dosing (Cmax and AUCt, Day 14 vs Day 1)", "setting": "[2]; 300 mg and 1000 mg", "result": "≤ 30", "unit": "%"}, {"measurement": "Fluctuation (%)", "setting": "[2]; 450 mg Twice Daily, Day 5, Mean ± SD", "result": "143% and 143 ± 42%"}, {"measurement": "Fluctuation (%)", "setting": "[2]; 450 mg Twice Daily, Day 5, Mean ± SD, listed as COMPOUND A", "result": 143, "unit": "%"}, {"measurement": "Fluctuation (%)", "setting": "[2]; 900 mg Once Daily, Day 5, Mean ± SD", "result": "245 ± 81", "unit": "%"}, {"measurement": "Fluctuation (%)", "setting": "[2]; 900 mg Once Daily, Day 5, Mean ± SD, listed as COMPOUND A", "result": 245, "unit": "%"}, {"measurement": "half-life", "setting": "[2]; human, plasma, oral, 100 mg, t½ (h), 100 mg Fed once daily, Day 1, N = 1", "result": 3.85, "unit": "h"}, {"measurement": "half-life", "setting": "[2]; human, plasma, oral, 100 mg, t½ (h), 100 mg Fed once daily, Day 14, N = 1", "result": 7.4, "unit": "h"}, {"measurement": "half-life", "setting": "[2]; human, plasma, oral, 300 mg, t½ (h), 300 mg Fed once daily, Day 1, N = 1", "result": 7.96, "unit": "h"}, {"measurement": "dose excreted at 24 h", "setting": "[2]; male, human, faeces, oral, 300 mg, 300 mg fasted", "result": 0.73, "unit": "%"}, {"measurement": "dose excreted at 24 h", "setting": "[2]; male, human, faeces, oral, 300 mg, 300 mg fed", "result": 1.78, "unit": "%"}, {"measurement": "dose excreted", "setting": "[2]; male, human, faeces, oral, 300 mg, fecal recovery", "result": "1 to 2", "unit": "%"}, {"measurement": "dose excreted at 24 h", "setting": "[2]; male, human, faeces, oral, 1000 mg", "result": 16.8, "unit": "%"}, {"measurement": "Tmax", "setting": "[2]; male, human, plasma, oral, 100 mg, 100 mg Fed once daily, Day 1, Median (Min, Max)", "result": 4, "unit": "h"}, {"measurement": "Tmax", "setting": "[2]; male, human, plasma, oral, 100 mg, 100 mg Fed once daily, Day 14, Median (Min, Max)", "result": 4, "unit": "h"}, {"measurement": "Tmax", "setting": "[2]; male, human, plasma, oral, 100 mg, single dose 100 mg, Median (Min, Max)", "result": 2, "unit": "h"}, {"measurement": "Cmax", "setting": "[2]; male, human, plasma, oral, 100 mg, mean peak plasma concentration (Cmax), single dose 100 mg", "result": 2.11, "unit": "ng/mL"}, {"measurement": "half-life", "setting": "[2]; male, human, plasma, oral, 100 mg, t½ (h), single dose 100 mg, Mean ± SD, N = 4", "result": "3.05 ± 0.71", "unit": "h"}, {"measurement": "Tmax", "setting": "[2]; male, human, plasma, oral, 300 mg, 300 mg Fasted once daily, Day 1, Median (Min, Max)", "result": 2, "unit": "h"}, {"measurement": "Tmax", "setting": "[2]; male, human, plasma, oral, 300 mg, 300 mg Fasted once daily, Day 14, Median (Min, Max)", "result": 2, "unit": "h"}, {"measurement": "Tmax", "setting": "[2]; male, human, plasma, oral, 300 mg, 300 mg Fed once daily, Day 1, Median (Min, Max)", "result": 4, "unit": "h"}, {"measurement": "Tmax", "setting": "[2]; male, human, plasma, oral, 300 mg, 300 mg Fed once daily, Day 14, Median (Min, Max)", "result": 4, "unit": "h"}, {"measurement": "Tmax", "setting": "[2]; male, human, plasma, oral, 300 mg, single dose 300 mg Fasted, Median (Min, Max)", "result": 3, "unit": "h"}, {"measurement": "Tmax", "setting": "[2]; male, human, plasma, oral, 300 mg, single dose 300 mg High Fat Meal, Median (Min, Max)", "result": 4, "unit": "h"}, {"measurement": "half-life", "setting": "[2]; male, human, plasma, oral, 300 mg, mean elimination half-life, single doses 100 and 300 mg", "result": "3.1 to 4", "unit": "h"}, {"measurement": "half-life", "setting": "[2]; male, human, plasma, oral, 300 mg, t½ (h), 300 mg Fasted once daily, Day 1, Mean ± SD", "result": "5.16 ± 1.92", "unit": "h"}, {"measurement": "half-life", "setting": "[2]; male, human, plasma, oral, 300 mg, t½ (h), 300 mg Fasted once daily, Day 14, Mean ± SD, N = 7", "result": "7.31 ± 3.86", "unit": "h"}, {"measurement": "half-life", "setting": "[2]; male, human, plasma, oral, 300 mg, t½ (h), single dose 300 mg Fasted, Mean ± SD, N = 4", "result": "4.02 ± 1.37", "unit": "h"}, {"measurement": "Tmax", "setting": "[2]; male, human, plasma, oral, 450 mg, 450 mg Twice Daily, Day 1, Median (min, max)", "result": 2, "unit": "h"}, {"measurement": "Tmax", "setting": "[2]; male, human, plasma, oral, 450 mg, 450 mg Twice Daily, Day 5, Median (min, max)", "result": 2, "unit": "h"}, {"measurement": "Tmax", "setting": "[2]; male, human, plasma, oral, 900 mg, 900 mg Once Daily, Day 1, Median (min, max)", "result": 2, "unit": "h"}, {"measurement": "Tmax", "setting": "[2]; male, human, plasma, oral, 900 mg, 900 mg Once Daily, Day 5, Median (min, max)", "result": 2, "unit": "h"}, {"measurement": "half-life", "setting": "[2]; male, human, plasma, oral, 900 mg, t½ (h), 900 mg Once Daily, Day 1, Mean ± SD", "result": "5.27 ± 2.4", "unit": "h"}, {"measurement": "half-life", "setting": "[2]; male, human, plasma, oral, 900 mg, t½ (h), 900 mg Once Daily, Day 5, Mean ± SD", "result": "6.24 ± 2.97", "unit": "h"}, {"measurement": "Tmax", "setting": "[2]; male, human, plasma, oral, 1000 mg, 1000 mg Fasted once daily, Day 1, Median (Min, Max)", "result": 2, "unit": "h"}, {"measurement": "Tmax", "setting": "[2]; male, human, plasma, oral, 1000 mg, 1000 mg Fasted once daily, Day 14, Median (Min, Max)", "result": 2, "unit": "h"}]}]}
